Laboratory results published in ChEMBL document CHEMBL1129215, “(Dipropylamino)-tetrahydronaphthofurans: centrally acting serotonin agonists and dopamine agonists-antagonists” (Bioorg Med Chem Lett, 1997).
The source made the active and inactive calls. The calls are words filed in the database; no cut-off is given here.

What was measured:
[1] = molecular target: Serotonin 2 (5-HT2) receptor (Homo sapiens, UniProt P41595+P28223+P28335); test: Tested in vitro for the inhibition of [3H]ketanserin binding to 5-hydroxytryptamine 2 receptor, expressed in cloned CHO cells.; assay type: cell-based
[2] = molecular target: T1, D(4) dopamine receptor (Homo sapiens, UniProt P21917); test: Tested in vitro for the inhibition of [3H]spiperone binding to Dopamine receptor D4, expressed in cloned CHO cells; assay type: cell-based
T1 sequence (P21917 whole entry): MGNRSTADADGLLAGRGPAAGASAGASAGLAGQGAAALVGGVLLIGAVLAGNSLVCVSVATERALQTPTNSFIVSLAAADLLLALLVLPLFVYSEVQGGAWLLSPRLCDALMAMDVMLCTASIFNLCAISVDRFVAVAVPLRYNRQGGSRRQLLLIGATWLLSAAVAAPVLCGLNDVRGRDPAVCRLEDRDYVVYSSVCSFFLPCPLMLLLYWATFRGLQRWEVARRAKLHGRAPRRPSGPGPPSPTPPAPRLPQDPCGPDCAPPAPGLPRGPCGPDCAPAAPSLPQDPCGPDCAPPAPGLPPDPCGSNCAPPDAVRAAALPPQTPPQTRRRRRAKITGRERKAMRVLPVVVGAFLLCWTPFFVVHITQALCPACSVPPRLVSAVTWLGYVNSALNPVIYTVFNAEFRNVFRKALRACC

[3] = molecular target: D(3) dopamine receptor (Homo sapiens, UniProt P35462); test: biochemical
Description: Tested in vitro for the inhibition of [3H]U-86170 binding to Dopamine receptor D3, expressed in cloned CHO cells

[4] = molecular target: D(2) dopamine receptor (Rattus norvegicus, UniProt P61169); test: Tested in vitro for the inhibition of [3H]raclopride binding to Dopamine receptor D2 in rat striatum; assay type: tissue-based
[5] = test system: Rattus norvegicus; test: The compound was evaluated in vivo for the DOPA accumulation at hemispheres in reserpine pretreated rats at 12.5 umol/kg; Inactive; assay type: functional, organism-based
[6] = test system: Rattus norvegicus; test: The compound was evaluated in vivo for the 5-HTP accumulation at hemispheres in reserpine pretreated rats; assay type: functional
[7] = test system: Rattus norvegicus; test: The compound was evaluated in vivo for the 5-HTP accumulation at limbic regions; assay type: functional; conditions: Limbic system
[8] = test system: Rattus norvegicus; test: The compound was evaluated in vivo for the DOPA accumulation at limbic regions at 12.5 umol/kg; Inactive; assay type: functional, organism-based; conditions: Limbic system
[9] = test system: Rattus norvegicus; test: The compound was evaluated in vivo for the DOPA accumulation at corpus striatum at 12.5 umol/kg; Partial effects in the highest dose tested; assay type: functional, organism-based
[10] = molecular target: T2, 5-hydroxytryptamine receptor 1A (Homo sapiens, UniProt P08908); test: Tested in vitro for the inhibition of [3H]8-OH-DPAT binding to 5-hydroxytryptamine 1A receptor, expressed in cloned CHO cells.; assay type: cell-based
T2 sequence (P08908 whole entry): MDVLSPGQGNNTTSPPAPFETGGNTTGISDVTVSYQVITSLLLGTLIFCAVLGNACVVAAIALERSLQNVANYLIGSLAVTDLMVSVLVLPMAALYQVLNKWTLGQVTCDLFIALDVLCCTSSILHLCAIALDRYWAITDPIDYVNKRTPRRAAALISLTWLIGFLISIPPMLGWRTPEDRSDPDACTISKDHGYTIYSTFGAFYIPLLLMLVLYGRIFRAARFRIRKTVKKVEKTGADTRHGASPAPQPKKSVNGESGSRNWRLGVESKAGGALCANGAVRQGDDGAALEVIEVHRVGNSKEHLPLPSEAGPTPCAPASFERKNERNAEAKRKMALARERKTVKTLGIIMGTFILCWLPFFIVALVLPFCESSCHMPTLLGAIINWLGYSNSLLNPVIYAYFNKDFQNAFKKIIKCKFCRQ

[11] = test system: Rattus norvegicus; test: The compound was evaluated in vivo for the 5-HTP accumulation at corpus striatum; assay type: functional
[12] = test system: Rattus norvegicus; test: The compound was evaluated in vivo for the DOPA accumulation at limbic regions; partial effect at highest dose of 45 umol/kg; assay type: functional, organism-based; conditions: Limbic system
[13] = test system: Rattus norvegicus; test: The compound was evaluated in vivo for the DOPA accumulation at corpus striatum; partial effect at highest dose of 45 umol/kg; assay type: functional, organism-based
[14] = test system: Rattus norvegicus; test: The compound was evaluated in vivo for the DOPA accumulation at hemispheres in reserpine pretreated rats; partial effect at highest dose of 45 umol/kg; assay type: functional, organism-based
[15] = test system: Rattus norvegicus; test: The compound was evaluated in vivo for the DOPA accumulation at hemispheres in reserpine pretreated rats at 13.5 umol/kg; inactive in highest dose tested; assay type: functional, organism-based
[16] = test system: Rattus norvegicus; test: The compound was evaluated in vivo for the DOPA accumulation at corpus striatum; assay type: functional
[17] = test system: Rattus norvegicus; test: The compound was evaluated in vivo for the 5-HTP accumulation at corpus striatum at 13.5 umol/kg; inactive in highest dose tested; assay type: functional, organism-based
[18] = test system: Rattus norvegicus; test: The compound was evaluated in vivo for the 5-HTP accumulation at limbic regions at 13.5 umol/kg; inactive in highest dose tested; assay type: functional, organism-based; conditions: Limbic system
[19] = test system: Rattus norvegicus; test: The compound was evaluated in vivo for the DOPA accumulation at limbic regions; assay type: functional; conditions: Limbic system
[20] = test system: Rattus norvegicus; test: The compound was evaluated in vivo for the 5-HTP accumulation at hemispheres in reserpine pretreated rats at 13.5 umol/kg; inactive in highest dose tested; assay type: functional, organism-based
[21] = test system: Rattus norvegicus; test: The compound was evaluated in vivo for the 5-HTP accumulation at hemispheres in reserpine pretreated rats at 11 umol/kg; inactive in highest dose tested; assay type: functional, organism-based
[22] = test system: Rattus norvegicus; test: The compound was evaluated in vivo for the 5-HTP accumulation at limbic regions at 11 umol/kg; inactive in highest dose tested; assay type: functional, organism-based; conditions: Limbic system
[23] = test system: Rattus norvegicus; test: The compound was evaluated in vivo for the DOPA accumulation at hemispheres in reserpine pretreated rats at 11 umol/kg; inactive in highest dose tested; assay type: functional, organism-based
[24] = test system: Rattus norvegicus; test: The compound was evaluated in vivo for the 5-HTP accumulation at corpus striatum at 11 umol/kg; inactive in highest dose tested; assay type: functional, organism-based
[25] = test system: Rattus norvegicus; test: The compound was evaluated in vivo for the locomotpr activity in non-pretreated rats at 50 uM/kg dose; assay type: functional
[26] = test system: Rattus norvegicus; test: The compound was evaluated in vivo for the DOPA accumulation at corpus striatum in non-pretreated rats at 50 umol/kg dose; assay type: functional
[27] = test system: Rattus norvegicus; test: The compound was evaluated in vivo for the DOPA accumulation at limbic regions at 50 umol/kg dose; assay type: functional, Limbic system
[28] = test system: Rattus norvegicus; test: The compound was evaluated in vivo for the DOPA accumulation at hemispheres in reserpine pretreated rats at 50 umol/kg; inactive in the highest dose tested; assay type: functional, organism-based
[29] = test system: Rattus norvegicus; test: The compound was evaluated in vivo for the DOPA accumulation at corpus striatum at 50 umol/kg; Partial effects in the highest dose tested; assay type: functional, organism-based
[30] = test system: Rattus norvegicus; test: The compound was evaluated in vivo for the DOPA accumulation at limbic regions at 50 umol/kg; Partial effects in the highest dose tested; assay type: functional, organism-based; conditions: Limbic system
[31] = molecular target: T1, D(4) dopamine receptor; test: (§1) Tested in vitro for the inhibition of [3H]spiperone binding to Dopamine receptor D4, expressed in cloned CHO cells; Inactive; assay type: cell-based
[32] = test system: Rattus norvegicus; test: The compound was evaluated in vivo for the 5-HTP accumulation at limbic regions at 50 umol/kg; Inactive; assay type: functional, organism-based; conditions: Limbic system
[33] = test system: Rattus norvegicus; test: The compound was evaluated in vivo for the 5-HTP accumulation at hemispheres in reserpine pretreated rats at 50 umol/kg; Inactive; assay type: functional, organism-based
[34] = test system: Rattus norvegicus; test: The compound was evaluated in vivo for the 5-HTP accumulation at corpus striatum at 50 umol/kg; Inactive; assay type: functional, organism-based
[35] = molecular target: T3, D(4) dopamine receptor (Homo sapiens) (UniProt P21917); test: as §1; assay type: cell-based
T3 sequence (whole entry): T1 sequence (P21917 whole entry)

[36] = test system: Rattus norvegicus; test: The compound was evaluated in vivo for the DOPA accumulation at hemispheres in reserpine pretreated rats at 50 umol/kg; Inactive; assay type: functional, organism-based
[37] = test system: Rattus norvegicus; test: The compound was evaluated in vivo for the locomotor activity in non-pretreated rats at 50 uM/kg dose; assay type: functional

Chain of D(3) dopamine receptor (P35462 whole entry): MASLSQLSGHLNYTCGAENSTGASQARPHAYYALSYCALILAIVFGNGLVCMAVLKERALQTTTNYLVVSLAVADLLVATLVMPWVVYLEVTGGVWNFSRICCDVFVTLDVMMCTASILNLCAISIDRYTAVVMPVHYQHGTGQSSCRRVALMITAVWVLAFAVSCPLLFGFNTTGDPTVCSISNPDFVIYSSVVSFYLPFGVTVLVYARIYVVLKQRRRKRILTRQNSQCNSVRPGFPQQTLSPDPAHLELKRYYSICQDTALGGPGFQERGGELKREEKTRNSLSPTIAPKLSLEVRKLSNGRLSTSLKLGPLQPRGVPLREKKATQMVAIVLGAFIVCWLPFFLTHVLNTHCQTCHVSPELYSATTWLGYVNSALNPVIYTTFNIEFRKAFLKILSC
Chain of D(2) dopamine receptor (P61169 whole entry): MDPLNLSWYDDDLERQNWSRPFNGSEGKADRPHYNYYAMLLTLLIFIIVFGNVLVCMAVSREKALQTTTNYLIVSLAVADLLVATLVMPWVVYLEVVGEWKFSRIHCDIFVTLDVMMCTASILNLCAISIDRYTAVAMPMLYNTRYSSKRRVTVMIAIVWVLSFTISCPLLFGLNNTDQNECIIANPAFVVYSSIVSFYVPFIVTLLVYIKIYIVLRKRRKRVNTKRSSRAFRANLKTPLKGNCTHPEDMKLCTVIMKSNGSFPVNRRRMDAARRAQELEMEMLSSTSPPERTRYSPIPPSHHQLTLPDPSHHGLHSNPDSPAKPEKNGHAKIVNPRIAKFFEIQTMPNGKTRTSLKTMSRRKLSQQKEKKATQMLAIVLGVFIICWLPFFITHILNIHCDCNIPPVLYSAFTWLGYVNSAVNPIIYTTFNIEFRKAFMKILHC

SMILES | Ki [1] [nM] | Ki [2] [nM] | Ki [3] [nM] | Ki [4] [nM] | ED50 [6] [µmol/kg] | ED50 [7] [µmol/kg] | Ki [10] [nM] | ED50 [11] [µmol/kg] | ED50 [16] [µmol/kg] | ED50 [19] [µmol/kg] | further results
CCCN1CC[C@H]2c3c(O)cccc3CC[C@H]21 | 1637 | > 4070 | > 4760 | 769 | – | – | – | – | – | – | –
CCCN1CC[C@H]2c3c(ccc4ccoc34)CC[C@H]21 | 146 | > 4070 | 323 | 150 | 0.66 | 0.41 | 3.9 | 0.4 | – | – | ED50 [5]: inactive; ED50 [8]: inactive; Activity [9]: Weak activity
CCCN(CCC)C1CCc2cccc(O)c2C1 (centres undefined) [8-OH-DPAT] | – | > 1520 | – | – | 0.052 | 0.052 | – | 0.063 | – | – | Activity [12]: Weak activity; Activity [13]: Weak activity; Activity [14]: Weak activity
CCCN(CCC)C1CCc2c(O)cccc2C1 (centres undefined) [5-OH-DPAT] | – | – | – | – | – | – | 344 | – | 0.009 | 0.011 | ED50 [15]: inactive; ED50 [17]: inactive; ED50 [18]: inactive; ED50 [20]: inactive
CCCN(CCC)C1CCc2ccc(O)cc2C1 (centres undefined) | – | 148 | – | – | – | – | 47 | – | 0.03 | 0.027 | ED50 [21]: inactive; ED50 [22]: inactive; ED50 [23]: inactive; ED50 [24]: inactive
CCCN(CCC)[C@@H]1CCc2c(ccc3ccoc23)[C@@H]1C | 70 | 55 | 27 | 46 | – | – | 120 | – | – | – | Saline control [25]: 107%; Saline control [26]: 161%; Saline control [27]: 121%
CCCN(CCC)C1CCc2ccc3ccoc3c2C1 (centres undefined) | – | – | 16.2 | 32 | 2.26 | 3.24 | 6.1 | 3.18 | – | – | Activity [28]: inactive; Activity [29]: Weak activity; Activity [30]: Weak activity; Ki [31]: Not Active
CCCN(CCC)C1CCc2c(ccc3ccoc23)C1 (centres undefined) | – | – | 56 | 18 | – | – | 210 | – | 0.98 | 0.74 | ED50 [32]: inactive; ED50 [33]: inactive; ED50 [34]: inactive; ED50 [35]: inactive; ED50 [36]: inactive
CCCN(CCC)C1CCc2ccc3occc3c2C1 (centres undefined) | – | – | 45 | 64 | 6.08 | 4.56 | 7.8 | 2.12 | 13.1 | 4.47 | ED50 [35]: inactive; ED50 [36]: inactive
CCCN(CCC)[C@@H]1CCc2c(OC)cccc2[C@@H]1C | – | – | – | 15 | – | – | – | – | – | – | Saline control [26]: 370%; Saline control [37]: 70%; Saline control [27]: 245%
